Data published in ChEMBL document CHEMBL5620351, “Advancing beyond reverse transcriptase inhibitors: The new era of hepatitis B polymerase inhibitors” (Eur J Med Chem, 2023).

Columns and labels:
[1] = system: Hepatitis B virus; test: Antiviral activity against HBV infected in human HepDES19 cells assessed as reduction in HBV replication; assay type: functional, organism-based
[2] = system: Hepatitis B virus; test: Antiviral activity against HBV infected in human HepDES19 cells assessed as inhibition of HBV replication by qPCR analysis; assay type: functional, organism-based
[3] = system: Hepatitis B virus; test: Antiviral activity against HBV infected in human HepDES19 cells assessed as inhibition of extracellular HBV DNA by qPCR analysis; assay type: functional, organism-based
[4] = Cytotoxicity against human HepDES19 cells assessed as reduction in cell viability incubated for 1 hr by MTS assay; assay type: functional
[5] = Cytotoxicity against human HEK293 cells assessed as reduction in cell viability incubated for 1 hr by MTS assay; assay type: toxicity, cell-based
[6] = Cytotoxicity against human LX2 cells assessed as reduction in cell viability incubated for 1 hr by MTS assay; assay type: toxicity, cell-based; details: LX-2 cells
[7] = system: Hepatitis B virus; test: Antiviral activity against HBV infected in human HepG2 2.2.15 cells assessed as reduction on HBsAg level incubated for 5 days; assay type: functional; set-up: concentration or dose not given beside the values; details: time 5 day
[8] = system: HepG2; test: Cytotoxicity against human HepG2 cells assessed as cell viability incubated for 12 days by WST-1 assay; assay type: functional; details: HepG2, 288 h, time 12 day
[9] = system: Huh-7; test: Cytotoxicity against human Huh-7 cells assessed as reduction in cell viability by Neutral Red staining based assay; assay type: functional
[10] = system: Huh-7; test: Cytotoxicity against human Huh-7 cells assessed as reduction in cell viability by LDH release assay; assay type: functional
[11] = system: Hepatitis B virus; test: Antiviral activity against HBV infected in human HePAD38 cells assessed as reduction in of intracellular HBV DNA incubated for 5 days by Southern blotting analysis; assay type: functional, organism-based; details: HePAD38, 120 h
[12] = system: Hepatitis B virus; test: Antiviral activity against lamivudine resistant HBV infected in human HepG2 cells assessed as reduction in of intracellular HBV DNA incubated for 5 days by Southern blotting analysis; assay type: functional, organism-based; details: HepG2, 120 h
[13] = system: Hepatitis B virus; test: Antiviral activity against adefovir-resistant HBV infected in human HepG2 cells assessed as reduction in of intracellular HBV DNA incubated for 5 days by Southern blotting analysis; assay type: functional, organism-based; details: HepG2, 120 h
[14] = system: HepG2; test: Cytotoxicity against human HepG2 cells assessed as reduction in cell viability by MTS assay; assay type: functional
[15] = system: HepG2; test: Cytotoxicity against human HepG2 cells assessed as reduction in cell viability in presence of lamivudine by MTS assay; assay type: functional
[16] = Inhibition of HBV RNA polymerase; set-up: species or system Hepatitis B virus
[17] = system: Hepatitis B virus; test: Antiviral activity against HBV transfected in human HB611 cells assessed as reduction of HBV DNA replication incubated for 5 days by q-PCR analysis; assay type: functional, organism-based; details: HB611, 120 h
[18] = system: Hepatitis B virus; test: Antiviral activity against HBV transfected in human HB611 cells; assay type: functional, organism-based
[19] = Cytotoxicity against human HB611 cells assessed as reduction in cell viability incubated for 6 to 9 days by celltiter-glo assay; assay type: functional; details: time 6-9 day
[20] = system: Hepatitis B virus; test: Antiviral activity against HBV infected in human HepG2.2.15.7 cells assessed as reduction in HBV DNA replication by TR-PCR analysis; assay type: functional, organism-based
[21] = system: Hepatitis B virus; test: Antiviral activity against HBV infected in human Hep38.7-TeT cells assessed as inhibition of extracellular HBV DNA by real-time qPCR analysis; assay type: functional, organism-based
[22] = system: Hepatitis B virus; test: Antiviral activity against HBV infected in human HepG2-hNTCP cells assessed as reduction in HBV DNA replication by qRT-PCR analysis; assay type: functional, organism-based
[23] = Cytotoxicity against human HepG2-hNTCP cells assessed as reduction in cell viability incubated for 3 days by celltiter glo assay; assay type: functional; details: 72 h, time 3 day
[24] = Cytotoxicity against human HB611 cells assessed as reduction in cell viability incubated for 3 days by celltiter glo assay; assay type: functional; details: HB611, 72 h, time 3 day

For `COc1ccccc1CON=C(C)c1c(C)cc(=O)n(O)c1O`, which EC50 [1] is on record?
The EC50 was 110 nM.

With `CC(=NOCc1ccccc1N)c1c(C)cc(=O)n(O)c1O` as the compound, how does the EC50 [1] read?
Its EC50 is 110 nM.

With `COc1ccc(CON=C(C)c2c(C)cc(=O)n(O)c2O)cc1` as the compound, how does the EC50 [1] read?
The EC50 was 110 nM.

For `COC(=O)C1C(=O)N(O)C(=O)c2ccccc21` (configuration not stated), which EC50 [2] is on record?
The EC50 was 690 nM.

Which EC50 [3] does the source give for `O=C1OCc2cc(O)c(=O)c(O)cc21` here?
Its EC50 is 600 nM.

What about the CC50 [4] of the same compound?
Its CC50 is > 100000 nM.

What about the CC50 at 1 h [5] of the same compound?
Its CC50 at 1 h is > 100000 nM.

What about the CC50 at 1 h [6] of the same compound?
The CC50 at 1 h was > 100000 nM.

Which EC50 [1] does the source give for `CC(=NOc1ccc(F)cc1)c1c(C)cc(=O)n(O)c1O` here?
Its EC50 is 110 nM.

Which EC50 [1] does the source give for `CCNC(=O)C1C(=O)N(O)C(=O)c2ccc(OC)nc21` (configuration not stated) here?
Its EC50 is 2400 nM.

Which EC50 [1] does the source give for `O=C(NCc1ccc(F)cc1)C1C(=O)N(O)C(=O)c2ccc(O)nc21` (configuration not stated) here?
The EC50 was 2400 nM.

For `Cc1ccc(CNC(=O)C2C(=O)N(O)C(=O)c3cc(NC(=O)c4ccccc4)ccc32)cc1` (configuration not stated), which EC50 [2] is on record?
The EC50 was 690 nM.

With `COc1ccc(CNC(=O)C2C(=O)N(O)C(=O)c3cc([N+](=O)[O-])ccc32)cc1` (configuration not stated) as the compound, how does the EC50 [2] read?
The EC50 was 690 nM.

Which results are given for `COC(=O)c1c2c(cc(O)c(=O)c1O)COC2=O`?
EC50 [3]: 500 nM; CC50 [4]: > 77000 nM; CC50 at 1 h [5]: > 100000 nM

With `CC(=NOCc1ccc(F)cc1)c1c(C)cc(=O)n(O)c1O` as the compound, how does the EC50 [1] read?
The EC50 was 110 nM.

With `N#C/C=C1/C=C[C@@H](O)C[C@H]1O[C@@H]1O[C@H](CO)[C@@H](O)[C@H](O)[C@H]1O` as the compound, how does the Activity [7] read?
The Activity was 62%.

With `CC(=NOCc1ccc(C)cc1)c1c(C)cc(=O)n(O)c1O` as the compound, how does the EC50 [1] read?
Its EC50 is 110 nM.

Which CC50 [8] does the source give for `O=C(/C=C/c1ccc(O)c(O)c1)NCCc1ccc(O)c(O)c1` here?
Its CC50 is 229000 nM.

Which CC50 [9] does the source give for `Nc1nc(O)c2ncn([C@H]3CC[C@@H](CO)O3)c2n1` here?
The CC50 was 26000 nM.

What about the CC50 [10] of the same compound?
The CC50 was 97000 nM.

What about the EC50 [11] of the same compound?
Its EC50 is 300 nM.

What about the EC50 [12] of the same compound?
Its EC50 is 890 nM.

And the EC50 [13]?
Its EC50 is 660 nM.

For `C/C=C(\C)C(=O)O[C@H]1C[C@@H](OC(C)=O)[C@@]2(C(=O)OC)CO[C@H]3[C@@H](O)[C@@](C)([C@]45O[C@@]4(C)[C@H]4C[C@@H]5O[C@@H]5OC=C[C@@]54O)[C@H]4[C@]1(CO[C@]4(O)C(=O)OC)[C@@H]32` [AZADIRACTIN], which Activity [7] is on record?
Its Activity is 62%.

For `CC(=O)O[C@H]1C(=O)[C@@]2(C)[C@H]([C@H](OC(=O)c3ccccc3)[C@]3(O)C[C@H](O)C(C)=C1C3(C)C)[C@]1(OC(C)=O)CO[C@@H]1C[C@@H]2O` [BACCATIN III], which Activity [7] is on record?
Its Activity is 62%.

For `CC(C)c1ccc(O)c(=O)c(O)c1` [BETA-THUJAPLICINOL], which CC50 [14] is on record?
Its CC50 is 47000 nM.

What about the CC50 [15] of the same compound?
Its CC50 is 48000 nM.

For `CCCCCCCCCCCC1=C(O)C(=O)C=C(O)C1=O` [EMBELIN], which Activity [7] is on record?
The Activity was 62%.

For `CCCCCCCC/C=C\CCCCCCCC(=O)NCCc1ccc(O)c(O)c1` [OLEOYL DOPAMINE], which IC50 [16] is on record?
The IC50 was 410 nM.

What about the IC50 [17] of the same compound?
The IC50 was 100 nM.

And the EC50 [18]?
Its EC50 is 130 nM.

And the CC50 [19]?
Its CC50 is 900 nM.

With `Oc1cc(O)cc(/C=C/c2ccc(O)c(O)c2)c1` [PICEATANNOL] as the compound, how does the EC50 [20] read?
Its EC50 is 96200 nM.

With `O=c1ccc2cc3ccoc3cc2o1` [PSORALEN] as the compound, how does the Activity [7] read?
Its Activity is 62%.

Which Activity [7] does the source give for `O=c1c(O)c(-c2ccc(O)c(O)c2)oc2cc(O)cc(O)c12` [QUERCETIN] here?
Its Activity is 62%.

For `O=C(/C=C/c1ccc(O)c(O)c1)O[C@H](Cc1ccc(O)c(O)c1)C(=O)O` [ROSMARINIC ACID], which EC50 [21] is on record?
The EC50 was 30000 nM.

For `O=C(/C=C/c1ccc(O)c(O)c1/C=C/c1ccc(O)c(O)c1)O[C@H](Cc1ccc(O)c(O)c1)C(=O)O` [SALVIANOLIC ACID A], which CC50 [8] is on record?
Its CC50 is 86000 nM.

What does the source list for `Cc1ccc(C(=O)Nc2ccc(S(=O)(=O)O)c3cc(S(=O)(=O)O)cc(S(=O)(=O)O)c23)cc1NC(=O)c1cccc(NC(=O)Nc2cccc(C(=O)Nc3cc(C(=O)Nc4ccc(S(=O)(=O)O)c5cc(S(=O)(=O)O)cc(S(=O)(=O)O)c45)ccc3C)c2)c1` [SURAMIN]?
IC50 [22]: 270 nM; CC50 [23]: 200000 nM; CC50 [24]: 168000 nM
